Measurements published in US20200038513A1, “MODULATORS OF FAK PROTEOLYSIS AND ASSOCIATED METHODS OF USE” (ARVINAS OPERATIONS, INC., priority 2018, published 2020).
Like-named read-outs stand apart in the source and are kept apart here.

What was measured:
[1] = Pharmacokinetics of intraperitoneal or intravenous injection in CD1 mice; type: in vivo; conditions: for Conc. (ng/mL) Mouse 1 / Conc. (ng/mL) Mouse 2 / Conc. (ng/mL) Mouse 3 / concentration at 0.25 h / concentration at 0.5 h / concentration at 1 h / concentration at 2 h / concentration at 4 h / concentration at 8 h / concentration at 0.033 h / concentration at 0.083 h: CD1 mice plasma; for concentration at 0.25 h / concentration at 0.5 h / concentration at 1 h / concentration at 2 h / concentration at 4 h / concentration at 8 h / AUC(0-t) / half-life / concentration at 0.033 h / concentration at 0.083 h: male, CD1, mouse, plasma
Method in brief: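 Male CD1 mice, 6-8 weeks old, 3 per group, dosed IV (5 s injection; 10% HP-b-CD, 40 mM sodium acetate, 40 mM NaCl, pH 4.5) or IP (5% EtOH, 5% Solutol HS15 in D5W). Serial dorsal metatarsal vein blood, terminal heart puncture; plasma analysed by LC/MS/MS after acetonitrile precipitation, calibration 1-2000 ng/mL.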

Fak = Fak (Homo sapiens, UniProt Q05397); assay: Fak degradation, immunoblotting in PC3 cells; type: cell-based; conditions: 24 hour treatment
Protocol: PC3 cells were cultured in F12-K (Kaighn's Modification of Ham's F-12 Medium), supplemented with 10% fetal bovine serum (FBS) and 1% penicillin-streptomycin at 37° C. and 5% CO2.
If not indicated otherwise, cells were seeded and grown to 80% confluency and were treated with compound or control for 24 hours. […] After 20 minutes the mixture was spun down at 16,000×g for 10 minutes at 4° C. to pellet insoluble materials. Protein concentration of supernatants were determined via BCA assay (Thermo Fisher) before addition of NuPAGE sample buffer containing 5% β-Me and boiling at 95° C. for 10 minutes. Equal amounts of protein were subjected to SDS-PAGE and subsequent electrophoretic transfer onto nitrocellulose membrane. […] Immunoblots were developed using enhanced chemiluminescence and visualized using a Bio-Rad Chemi-Doc MP Imaging System and quantitated with Image Lab v.5.2.1 software (Bio-Rad Laboratories). Data analysis and statistics was performed using Prism 7.0 (GraphPad).
Examination of Target Protein (Fak) Degradation.

PPB = type: in vitro ADME; conditions: plasma
[2] = ip, 10 mg/kg, IP 10 mg/kg, read-out: Conc. (ng/mL) Mouse 1
[3] = ip, 10 mg/kg, IP 10 mg/kg, read-out: Conc. (ng/mL) Mouse 2
[4] = ip, 10 mg/kg, IP 10 mg/kg, read-out: Conc. (ng/mL) Mouse 3
[5] = ip, 10 mg/kg, IP 10 mg/kg, read-out: Mean
[6] = iv, 1 mg/kg, IV 1.0 mg/kg, read-out: Conc. (ng/mL) Mouse 1
[7] = iv, 1 mg/kg, IV 1.0 mg/kg, read-out: Conc. (ng/mL) Mouse 2
[8] = iv, 1 mg/kg, IV 1.0 mg/kg, read-out: Conc. (ng/mL) Mouse 3
[9] = iv, 1 mg/kg, IV 1.0 mg/kg, read-out: Mean

Sequence of Fak (Q05397 whole entry): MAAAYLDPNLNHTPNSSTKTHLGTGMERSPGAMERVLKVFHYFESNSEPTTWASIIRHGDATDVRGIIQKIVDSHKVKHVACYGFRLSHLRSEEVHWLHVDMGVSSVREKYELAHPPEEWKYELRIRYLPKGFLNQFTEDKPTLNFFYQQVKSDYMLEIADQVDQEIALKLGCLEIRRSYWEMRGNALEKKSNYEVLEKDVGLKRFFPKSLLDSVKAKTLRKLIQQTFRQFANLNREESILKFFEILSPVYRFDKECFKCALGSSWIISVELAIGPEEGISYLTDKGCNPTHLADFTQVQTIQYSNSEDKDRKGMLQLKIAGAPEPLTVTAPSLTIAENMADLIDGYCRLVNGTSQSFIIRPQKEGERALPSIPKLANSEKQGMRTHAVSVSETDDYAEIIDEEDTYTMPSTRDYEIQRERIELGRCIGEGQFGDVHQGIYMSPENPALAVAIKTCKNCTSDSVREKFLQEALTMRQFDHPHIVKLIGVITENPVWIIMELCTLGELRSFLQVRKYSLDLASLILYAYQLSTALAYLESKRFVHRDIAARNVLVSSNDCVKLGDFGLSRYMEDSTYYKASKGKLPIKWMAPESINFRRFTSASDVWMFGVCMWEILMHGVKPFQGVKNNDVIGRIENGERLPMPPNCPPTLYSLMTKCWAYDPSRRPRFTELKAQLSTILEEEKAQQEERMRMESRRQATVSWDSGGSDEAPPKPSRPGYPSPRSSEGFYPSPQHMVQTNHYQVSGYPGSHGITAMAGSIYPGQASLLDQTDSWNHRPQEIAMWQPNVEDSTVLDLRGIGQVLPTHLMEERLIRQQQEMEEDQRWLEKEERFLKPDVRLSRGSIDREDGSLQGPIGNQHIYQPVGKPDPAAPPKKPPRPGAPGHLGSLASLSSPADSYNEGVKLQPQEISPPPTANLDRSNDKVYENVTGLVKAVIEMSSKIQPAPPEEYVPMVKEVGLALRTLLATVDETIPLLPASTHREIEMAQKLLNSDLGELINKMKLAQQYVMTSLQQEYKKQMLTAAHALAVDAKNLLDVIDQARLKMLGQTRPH

In the case of Cc1ncsc1-c1ccc(CNC(=O)[C@@H]2C[C@@H](O)CN2C(=O)[C@@H](NC(=O)CCOCCOc2ccc(Nc3ncc(C(F)(F)F)c(NCc4cccc(N(C)S(C)(=O)=O)c4)n3)cc2)C(C)(C)C)cc1 [Compound 102, (2S,4R)-1-((S)-3,3-dimethyl-2-(3-(2-(4-((4-((3-(N-methylmethylsulfonamido)benzyl)amino)-5-(trifluoromethyl)pyrimidin-2-yl)amino)phenoxy)ethoxy)propanamido)butanoyl)-4-hydroxy-N-(4-(4-methylthiazol-5-yl)benzyl)pyrrolidine-2-carboxamide], the “Conc. (ng/mL) Mouse 1” value ([1]; IP 10 mg/kg, 24 h) is reported as “BLOQ”, the “Conc. (ng/mL) Mouse 2” value ([1]; IP 10 mg/kg, 24 h) is reported as “BLOQ” and the “Conc. (ng/mL) Mouse 3” value ([1]; IP 10 mg/kg, 24 h) is reported as “BLOQ”. The “Conc. (ng/mL) Mouse 1” value ([1]; IV 1.0 mg/kg, 4 h) was “BLOQ”, the “Conc. (ng/mL) Mouse 2” value ([1]; IV 1.0 mg/kg, 4 h) was “BLOQ” and the “Conc. (ng/mL) Mouse 1” value ([1]; IV 1.0 mg/kg, 8 h) was “BLOQ”. The “Conc. (ng/mL) Mouse 2” value ([1]; IV 1.0 mg/kg, 8 h) was “BLOQ”, the “Conc. (ng/mL) Mouse 3” value ([1]; IV 1.0 mg/kg, 8 h) was “BLOQ” and the “Conc. (ng/mL) Mouse 1” value ([1]; IV 1.0 mg/kg, 24 h) was “BLOQ”. The “Conc. (ng/mL) Mouse 2” value ([1]; IV 1.0 mg/kg, 24 h) was “BLOQ”, the “Conc. (ng/mL) Mouse 3” value ([1]; IV 1.0 mg/kg, 24 h) was “BLOQ” and the concentration at 0.25 h [1, 2] was 521 ng/mL. It also gave a concentration at 0.25 h [1, 3] of 432 ng/mL, a concentration at 0.25 h [1, 4] of 338 ng/mL and a concentration at 0.25 h [1, 5] of 431 ng/mL. The concentration at 0.5 h [1, 2] was 674 ng/mL, the concentration at 0.5 h [1, 3] was 546 ng/mL and the concentration at 0.5 h [1, 4] was 551 ng/mL. For the same compound, the concentration at 0.5 h [1, 5] was 591 ng/mL, the concentration at 1 h [1, 2] was 2540 ng/mL and the concentration at 1 h [1, 3] was 2130 ng/mL. The concentration at 1 h [1, 4] was 2120 ng/mL, the concentration at 1 h [1, 5] was 2260 ng/mL and the concentration at 2 h [1, 2] was 1690 ng/mL. The concentration at 2 h [1, 3] was 1070 ng/mL, the concentration at 2 h [1, 4] was 1700 ng/mL and the concentration at 2 h [1, 5] was 1490 ng/mL. The concentration at 4 h ([1]; ip, 10 mg/kg, IP 10 mg/kg, 4 h, read-out: Conc. (ng/mL) Mouse 1) was 560 ng/mL, the concentration at 4 h ([1]; ip, 10 mg/kg, IP 10 mg/kg, 4 h, read-out: Conc. (ng/mL) Mouse 2) was 529 ng/mL and the concentration at 4 h ([1]; ip, 10 mg/kg, IP 10 mg/kg, 4 h, read-out: Conc. (ng/mL) Mouse 3) was 559 ng/mL. The concentration at 4 h ([1]; ip, 10 mg/kg, IP 10 mg/kg, 4 h, read-out: Mean) was 549 ng/mL, the concentration at 8 h ([1]; ip, 10 mg/kg, IP 10 mg/kg, 8 h, read-out: Conc. (ng/mL) Mouse 1) was 36.4 ng/mL and the concentration at 8 h ([1]; ip, 10 mg/kg, IP 10 mg/kg, 8 h, read-out: Conc. (ng/mL) Mouse 2) was 92.3 ng/mL. For the same compound, the concentration at 8 h ([1]; ip, 10 mg/kg, IP 10 mg/kg, 8 h, read-out: Conc. (ng/mL) Mouse 3) was 124 ng/mL, the concentration at 8 h ([1]; ip, 10 mg/kg, IP 10 mg/kg, 8 h, read-out: Mean) was 84 ng/mL and the AUC(0-t) ([1]; ip, 10 mg/kg, read-out: AUClast (h * ng/mL) IP) was 6260 ng·h/mL. The half-life ([1]; ip, 10 mg/kg, read-out: T ½ (h) IP (converted)) was 1.46 h, the concentration at 0.033 h [1, 6] was 1920 ng/mL and the concentration at 0.033 h [1, 7] was 1820 ng/mL. The concentration at 0.033 h [1, 8] was 1850 ng/mL, the concentration at 0.033 h [1, 9] was 1860 ng/mL and the concentration at 0.083 h [1, 6] was 249 ng/mL. The concentration at 0.083 h [1, 7] was 368 ng/mL, the concentration at 0.083 h [1, 8] was 333 ng/mL and the concentration at 0.083 h [1, 9] was 317 ng/mL. The concentration at 0.25 h [1, 6] was 55.9 ng/mL, the concentration at 0.25 h [1, 7] was 67.4 ng/mL and the concentration at 0.25 h [1, 8] was 71.8 ng/mL. The concentration at 0.25 h [1, 9] was 65.1 ng/mL, the concentration at 0.5 h [1, 6] was 23.7 ng/mL and the concentration at 0.5 h [1, 7] was 33.2 ng/mL. The concentration at 0.5 h [1, 8] was 37.6 ng/mL, the concentration at 0.5 h [1, 9] was 31.5 ng/mL and the concentration at 1 h [1, 6] was 11.8 ng/mL. For the same compound, the concentration at 1 h [1, 7] was 16.7 ng/mL, the concentration at 1 h [1, 8] was 18.4 ng/mL and the concentration at 1 h [1, 9] was 15.6 ng/mL. The concentration at 2 h [1, 6] was 6.9 ng/mL, the concentration at 2 h [1, 7] was 9.2 ng/mL and the concentration at 2 h [1, 8] was 6.75 ng/mL. The concentration at 2 h [1, 9] was 7.62 ng/mL, the concentration at 4 h ([1]; iv, 1 mg/kg, IV 1.0 mg/kg, 4 h, read-out: Conc. (ng/mL) Mouse 3) was 2.09 ng/mL and the AUC(0-t) ([1]; iv, 1 mg/kg, read-out: AUClast (h * ng/mL) IV) was 264 ng·h/mL. It also gave a half-life ([1]; iv, 1 mg/kg, read-out: T ½ (h) IV (converted)) of 0.905 h, a Dmax (Fak; PC-3, degradation maximum, PC3 cells, n = 3) of 99% and a DC50 (Fak; half-maximal degradation concentration, PC3 cells) of 3.3 nM. For the same compound, the “total Fak remaining” value (Fak; serum deprived PC3 cells, 10 nM) was 34%, the “total Fak remaining” value (Fak; serum deprived PC3 cells, 50 nM) was 5% and the Fak levels (Fak; serum deprived PC3 cells, 100 nM through 1 μM) was “undetectable”. For the same compound, the “Fak levels (rebound, hook effect)” value (Fak; serum deprived PC3 cells, 5 μM) was 10%, the “Fak levels (rebound, hook effect)” value (Fak; serum deprived PC3 cells, 10 μM) was 27% and the fraction unbound (PPB) was 0.0066.
